Source: patent US6365632B1, “Treatment of orthostatic hypotension” (Knoll Pharmaceuticals Company, priority 1999, dated 2002)

Assays:
[1] = target: [3H] Noradenaline reuptake in rat brain tissue; assay: in vitro [3H]noradrenaline reuptake inhibition in rat brain tissue; format: biochemical; details: means of ≧3 separate determinations
[2] = target: [3H] Dopamine reuptake in rat brain tissue; assay: in vitro [3H]dopamine reuptake inhibition in rat brain tissue; format: biochemical; details: means of ≧3 separate determinations

| Structure (SMILES) | Ki [1] [nM] | Ki [2] [nM] |
| --- | --- | --- |
| CC(NC(C)(C)C)C(=O)c1cccc(Cl)c1 (stereo not shown) [Bupropion] | 2590 | 409 |
| COc1ccc(C(CN(C)C)C2(O)CCCCC2)cc1 (stereo not shown) [Venlafaxine] | 196 | 2590 |
